Measured values taken from article PMC5817118 (Theranostics, 2018).
“Also recorded” adds a separate entry of the source. Where a SMILES comes first, the peptide text is derived from it. Bridges are numbered along the chain shown (N, C = ends). [ ]: non-standard residue; d: D form. AEEA = NCCOCCOCC(=O)O

What was measured:
[1] = biological target: T1, fibrin clot (Homo sapiens, UniProt P02671+P02675+P02679); test: Plasma matrix interference on probe binding to fibrin clots; details: 20 µCi probe, 0.1 M PBS diluted 50% with fresh frozen human plasma, 0.5 mL, 37 °C, 30 min, triplicate
T1 sequence (P02671 20-644 isoform P02671-2 limits assumed): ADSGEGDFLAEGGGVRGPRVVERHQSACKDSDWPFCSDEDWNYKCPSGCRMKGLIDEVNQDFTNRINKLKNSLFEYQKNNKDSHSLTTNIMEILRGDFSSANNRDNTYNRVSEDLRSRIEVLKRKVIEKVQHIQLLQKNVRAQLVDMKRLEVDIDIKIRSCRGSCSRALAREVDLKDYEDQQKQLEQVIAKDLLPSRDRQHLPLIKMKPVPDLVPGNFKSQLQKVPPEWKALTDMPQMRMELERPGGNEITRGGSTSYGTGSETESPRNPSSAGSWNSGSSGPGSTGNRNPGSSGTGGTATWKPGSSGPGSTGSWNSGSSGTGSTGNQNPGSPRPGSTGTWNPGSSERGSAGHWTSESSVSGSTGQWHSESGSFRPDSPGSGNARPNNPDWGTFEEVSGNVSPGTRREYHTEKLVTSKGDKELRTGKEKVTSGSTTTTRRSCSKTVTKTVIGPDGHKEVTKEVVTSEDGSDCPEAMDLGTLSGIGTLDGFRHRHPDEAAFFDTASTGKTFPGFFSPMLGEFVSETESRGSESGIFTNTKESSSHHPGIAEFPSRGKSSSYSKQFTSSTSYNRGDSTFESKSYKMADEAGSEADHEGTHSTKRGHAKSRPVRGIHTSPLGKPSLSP
T1 sequence (P02675 45-491 limits assumed): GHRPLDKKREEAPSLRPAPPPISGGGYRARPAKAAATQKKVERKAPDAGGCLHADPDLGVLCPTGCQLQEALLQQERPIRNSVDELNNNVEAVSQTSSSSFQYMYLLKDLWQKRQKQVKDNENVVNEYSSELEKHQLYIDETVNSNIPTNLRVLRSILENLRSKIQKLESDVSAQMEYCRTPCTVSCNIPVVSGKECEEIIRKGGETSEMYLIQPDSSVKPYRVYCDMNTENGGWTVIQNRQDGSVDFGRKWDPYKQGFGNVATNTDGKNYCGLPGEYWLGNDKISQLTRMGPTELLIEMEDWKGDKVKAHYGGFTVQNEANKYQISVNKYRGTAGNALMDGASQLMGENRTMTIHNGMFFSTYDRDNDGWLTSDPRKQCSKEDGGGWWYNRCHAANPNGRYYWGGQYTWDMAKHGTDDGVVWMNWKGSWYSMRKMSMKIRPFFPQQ
T1 sequence (P02679 27-437 isoform P02679-2 limits assumed): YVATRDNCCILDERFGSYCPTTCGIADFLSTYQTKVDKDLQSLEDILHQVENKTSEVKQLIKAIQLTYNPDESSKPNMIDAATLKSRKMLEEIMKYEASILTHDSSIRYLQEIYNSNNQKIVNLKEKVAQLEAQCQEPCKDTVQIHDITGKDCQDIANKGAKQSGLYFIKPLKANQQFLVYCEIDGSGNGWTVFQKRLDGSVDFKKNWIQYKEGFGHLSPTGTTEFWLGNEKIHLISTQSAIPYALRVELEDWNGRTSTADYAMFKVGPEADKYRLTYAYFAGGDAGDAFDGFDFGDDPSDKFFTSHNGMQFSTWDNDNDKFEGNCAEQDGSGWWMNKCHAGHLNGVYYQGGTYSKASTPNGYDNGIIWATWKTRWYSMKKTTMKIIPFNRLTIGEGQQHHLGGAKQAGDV

[2] = Organ biodistribution in mice at 180 min; format: in vivo; details: 180 min after tail vein injection, n=3/treatment

CC[C@H](C)[C@H](NC(=O)[C@H](Cc1c[nH]c2ccccc12)NC(=O)[C@@H]1CSSC[C@H](NC(=O)[C@H](CCC(=O)O)NC(=O)[C@H](Cc2c[nH]c3ccccc23)NC(=O)[C@H](CCC(N)=O)NC(=O)COCCOCCNC(=O)[C@H](CCC(=O)O)NC(=O)[C@H](Cc2c[nH]cn2)NC(=O)[C@@H](N)Cc2c[nH]cn2)C(=O)N2CCC[C@H]2C(=O)N[C@@H](Cc2ccc(O)cc2)C(=O)NCC(=O)N[C@@H](CC(C)C)C(=O)N1)C(=O)N[C@@H](CCC(N)=O)C(=O)O [^99mTc-F1A, metal not drawn] (H-HHE[AEEA]QWECPYGLCWIQ-OH; disulfide 8-13)
binding to fibrin clots in the presence of human plasma compared with PBS alone [1]: interfered; also recorded: dramatically reduced; also recorded: severely compromised | organ accumulation (lung, liver, spleen) [2]: negligible liver or spleen biodistribution; also recorded: neither probe accumulating substantially in the lung, liver or spleen
